# Results published in ChEMBL document CHEMBL4138123, “Design, synthesis and biological evaluation of novel pyrazolochalcones as potential modulators of PI3K/Akt/mTOR pathway and inducers of apoptosis in breast cancer cells” (Eur J Med Chem, 2017).
# Experiments:
# [1] = test system: SK-OV-3; assay: Cytotoxicity against human SKOV3 cells assessed as cell growth at 10 uM after 48 hrs by sulforhodamine B assay relative to control; type: functional; settings: SK-OV-3, 48 h, read-out: Activity
# [2] = test system: MDA-MB-231; assay: Cytotoxicity against human MDA-MB-231 cells assessed as cell growth at 0.01 uM after 48 hrs by sulforhodamine B assay relative to control; type: functional; settings: MDA-MB-231, 48 h, read-out: Activity
# [3] = test system: NCI-H460; assay: Cytotoxicity against human NCI-H460 cells assessed as cell growth at 1 uM after 48 hrs by sulforhodamine B assay relative to control; type: functional; settings: NCI-H460, 48 h, read-out: Activity
# [4] = test system: NCI-H460; assay: Cytotoxicity against human NCI-H460 cells assessed as cell growth at 100 uM after 48 hrs by sulforhodamine B assay relative to control; type: functional; settings: NCI-H460, 48 h, read-out: Activity
# [5] = test system: MDA-MB-231; assay: Cytotoxicity against human MDA-MB-231 cells assessed as growth inhibition after 48 hrs by sulforhodamine B assay; type: functional; settings: MDA-MB-231, 48 h
# [6] = test system: SK-OV-3; assay: Cytotoxicity against human SKOV3 cells assessed as cell growth at 100 uM after 48 hrs by sulforhodamine B assay relative to control; type: functional; settings: SK-OV-3, 48 h, read-out: Activity
# [7] = test system: MDA-MB-468; assay: Cytotoxicity against human MDA-MB-468 cells assessed as cell growth at 0.1 uM after 48 hrs by sulforhodamine B assay relative to control; type: functional; settings: MDA-MB-468, 48 h, read-out: Activity
# [8] = test system: SNB-19; assay: Cytotoxicity against human SNB19 cells assessed as cell growth at 100 uM after 48 hrs by sulforhodamine B assay relative to control; type: functional; settings: SNB-19, 48 h, read-out: Activity
# [9] = test system: COLO 205; assay: Cytotoxicity against human COLO205 cells assessed as cell growth at 0.01 uM after 48 hrs by sulforhodamine B assay relative to control; type: functional; settings: COLO 205, 48 h, read-out: Activity
# [10] = test system: HL-60(TB); assay: Cytotoxicity against human HL-60(TB) cells assessed as cell growth at 0.01 uM after 48 hrs by sulforhodamine B assay relative to control; type: functional; settings: HL-60, 48 h, read-out: Activity
# [11] = test system: SF-539; assay: Cytotoxicity against human SF539 cells assessed as cell growth at 10 uM after 48 hrs by sulforhodamine B assay relative to control; type: functional; settings: SF-539, 48 h, read-out: Activity
# [12] = test system: ACHN; assay: Cytotoxicity against human ACHN cells assessed as cell growth at 1 uM after 48 hrs by sulforhodamine B assay relative to control; type: functional; settings: read-out: Activity
# [13] = test system: OVCAR-4; assay: Cytotoxicity against human OVCAR4 cells assessed as cell growth at 0.01 uM after 48 hrs by sulforhodamine B assay relative to control; type: functional; settings: OVCAR-4, 48 h, read-out: Activity
# [14] = test system: MDA-MB-435; assay: Cytotoxicity against human MDA-MB-435 cells assessed as growth inhibition after 48 hrs by sulforhodamine B assay; type: functional; settings: MDA-MB-435, 48 h
# [15] = test system: NCI-H23; assay: Cytotoxicity against human NCI-H23 cells assessed as cell growth at 0.01 uM after 48 hrs by sulforhodamine B assay relative to control; type: functional; settings: NCI-H23, 48 h, read-out: Activity
# [16] = test system: Malme-3M; assay: Cytotoxicity against human MALME-3M cells assessed as cell growth at 100 uM after 48 hrs by sulforhodamine B assay relative to control; type: functional; settings: read-out: Activity
# [17] = test system: T47D; assay: Cytotoxicity against human T47D cells assessed as cell growth at 0.1 uM after 48 hrs by sulforhodamine B assay relative to control; type: functional; settings: read-out: Activity
# [18] = test system: MDA-MB-231; assay: Cytotoxicity against human MDA-MB-231 cells assessed as cell growth at 1 uM after 48 hrs by sulforhodamine B assay relative to control; type: functional; settings: MDA-MB-231, 48 h, read-out: Activity
# [19] = test system: RXF 393; assay: Cytotoxicity against human RXF393 cells assessed as cell growth at 100 uM after 48 hrs by sulforhodamine B assay relative to control; type: functional; settings: RXF 393, 48 h, read-out: Activity
# [20] = test system: OVCAR-5; assay: Cytotoxicity against human OVCAR5 cells assessed as cell growth at 100 uM after 48 hrs by sulforhodamine B assay relative to control; type: functional; settings: OVCAR-5, 48 h, read-out: Activity
# [21] = test system: UACC-257; assay: Cytotoxicity against human UACC257 cells assessed as cell growth at 0.1 uM after 48 hrs by sulforhodamine B assay relative to control; type: functional; settings: UACC-257, 48 h, read-out: Activity
# [22] = test system: TK-10; assay: Cytotoxicity against human TK10 cells assessed as cell growth at 0.01 uM after 48 hrs by sulforhodamine B assay relative to control; type: functional; settings: TK-10, 48 h, read-out: Activity
# [23] = test system: KM12; assay: Cytotoxicity against human KM12 cells assessed as cell growth at 0.01 uM after 48 hrs by sulforhodamine B assay relative to control; type: functional; settings: KM12, 48 h, read-out: Activity
# [24] = test system: MDA-MB-231; assay: Cytotoxicity against human MDA-MB-231 cells assessed as growth inhibition after 48 hrs by MTT assay; type: functional, cell-based; settings: MDA-MB-231, 48 h
# [25] = test system: A549; assay: Cytotoxicity against human A549/ATCC cells assessed as cell growth at 1 uM after 48 hrs by sulforhodamine B assay relative to control; type: functional; settings: A549, 48 h, read-out: Activity
# [26] = test system: HOP-62; assay: Cytotoxicity against human HOP62 cells assessed as cell growth at 0.1 uM after 48 hrs by sulforhodamine B assay relative to control; type: functional; settings: HOP-62, 48 h, read-out: Activity
# [27] = test system: T47D; assay: Cytotoxicity against human T47D cells assessed as growth inhibition after 48 hrs by sulforhodamine B assay; type: functional
# [28] = test system: HCT-116; assay: Cytotoxicity against human HCT116 cells assessed as cell growth at 100 uM after 48 hrs by sulforhodamine B assay relative to control; type: functional; settings: HCT-116, 48 h, read-out: Activity
# [29] = test system: SF-268; assay: Cytotoxicity against human SF268 cells assessed as cell growth at 1 uM after 48 hrs by sulforhodamine B assay relative to control; type: functional; settings: SF-268, 48 h, read-out: Activity
# [30] = test system: OVCAR-3; assay: Cytotoxicity against human OVCAR3 cells assessed as cell growth at 100 uM after 48 hrs by sulforhodamine B assay relative to control; type: functional; settings: OVCAR-3, 48 h, read-out: Activity
# [31] = test system: A549; assay: Cytotoxicity against human A549/ATCC cells assessed as cell growth at 100 uM after 48 hrs by sulforhodamine B assay relative to control; type: functional; settings: A549, 48 h, read-out: Activity
# [32] = test system: MDA-MB-468; assay: Cytotoxicity against human MDA-MB-468 cells assessed as cell growth at 100 uM after 48 hrs by sulforhodamine B assay relative to control; type: functional; settings: MDA-MB-468, 48 h, read-out: Activity
# [33] = test system: SF-268; assay: Cytotoxicity against human SF268 cells assessed as growth inhibition after 48 hrs by sulforhodamine B assay; type: functional; settings: SF-268, 48 h; for CC50: read-out: LC50 (the source's name)
# [34] = test system: OVCAR-4; assay: Cytotoxicity against human OVCAR4 cells assessed as cell growth at 1 uM after 48 hrs by sulforhodamine B assay relative to control; type: functional; settings: OVCAR-4, 48 h, read-out: Activity
# [35] = test system: SW-620; assay: Cytotoxicity against human SW620 cells assessed as cell growth at 1 uM after 48 hrs by sulforhodamine B assay relative to control; type: functional; settings: SW-620, 48 h, read-out: Activity
# [36] = test system: COLO 205; assay: Cytotoxicity against human COLO205 cells assessed as cell growth at 1 uM after 48 hrs by sulforhodamine B assay relative to control; type: functional; settings: COLO 205, 48 h, read-out: Activity
smiles,measurement,setting,value
COc1ccc(-c2cc(/C=C/C(=O)c3ccc(OC)c(OC)c3)[nH]n2)cc1,growth at 10 µM,[1],29%
same,growth at 0.01 µM,[2],98%
same,growth at 1 µM,[3],75%
same,growth at 100 µM,[4],-63%
same,GI50,[5],2 µM
same,LC50,[5],30 µM
same,TGI,[5],6.63 µM
same,growth at 100 µM,[6],-95%
same,growth at 0.1 µM,[7],90%
same,growth at 100 µM,[8],-96%
same,growth at 0.01 µM,[9],103%
same,growth at 0.01 µM,[10],102%
same,growth at 10 µM,[11],-93%
same,growth at 1 µM,[12],82%
same,growth at 0.01 µM,[13],88%
same,GI50,[14],1.84 µM
same,LC50,[14],8.17 µM
same,TGI,[14],3.88 µM
same,growth at 0.01 µM,[15],100%
same,growth at 100 µM,[16],-100%
same,growth at 0.1 µM,[17],92%
same,growth at 1 µM,[18],79%
same,growth at 100 µM,[19],-92%
same,growth at 100 µM,[20],-87%
same,growth at 0.1 µM,[21],86%
same,growth at 0.01 µM,[22],100%
same,growth at 0.01 µM,[23],105%
same,IC50,[24],0.6 µM
same,growth at 1 µM,[25],77%
same,growth at 0.1 µM,[26],97%
same,GI50,[27],1.6 µM
same,LC50,[27],24.9 µM
same,TGI,[27],5.15 µM
same,growth at 100 µM,[28],-100%
same,growth at 1 µM,[29],86%
same,growth at 100 µM,[30],-96%
same,growth at 100 µM,[31],-45%
same,growth at 100 µM,[32],-76%
same,GI50,[33],1.94 µM
same,TGI,[33],4.82 µM
same,CC50,[33],27.3 µM
same,growth at 1 µM,[34],39%
same,growth at 1 µM,[35],65%
same,growth at 1 µM,[36],95%
COc1ccc(-c2cc(/C=C/C(=O)c3ccc(N)cc3)[nH]n2)cc1OC,growth at 10 µM,[1],29%
same,growth at 0.01 µM,[2],113%
same,growth at 1 µM,[3],94%
same,growth at 100 µM,[4],-76%
same,GI50,[5],4.42 µM
same,LC50,[5],53.9 µM
same,TGI,[5],17.2 µM
same,growth at 100 µM,[6],-99%
same,growth at 0.1 µM,[7],91%
same,growth at 100 µM,[8],-91%
same,growth at 0.01 µM,[9],92%
same,growth at 0.01 µM,[10],104%
same,growth at 10 µM,[11],-73%
same,growth at 1 µM,[12],88%
same,growth at 0.01 µM,[13],85%
same,GI50,[14],2.53 µM
same,LC50,[14],40.8 µM
same,TGI,[14],7.23 µM
same,growth at 0.01 µM,[15],103%
same,growth at 100 µM,[16],-75%
same,growth at 0.1 µM,[17],90%
same,growth at 1 µM,[18],98%
same,growth at 100 µM,[19],-95%
same,growth at 100 µM,[20],-81%
same,growth at 0.1 µM,[21],90%
same,growth at 0.01 µM,[22],102%
same,growth at 0.01 µM,[23],102%
same,IC50,[24],2.2 µM
same,growth at 1 µM,[25],89%
same,growth at 0.1 µM,[26],91%
same,GI50,[27],4.25 µM
same,LC50,[27],> 100 µM
same,TGI,[27],26 µM
same,growth at 100 µM,[28],-89%
same,growth at 1 µM,[29],88%
same,growth at 100 µM,[30],-99%
same,growth at 100 µM,[31],-76%
same,growth at 100 µM,[32],-73%
same,GI50,[33],1.89 µM
same,TGI,[33],4.4 µM
same,CC50,[33],11.2 µM
same,growth at 1 µM,[34],69%
same,growth at 1 µM,[35],95%
same,growth at 1 µM,[36],98%
